{"source": "patent US5130300A", "about": "“Method for enhancing growth of mammary parenchyma” (Monsanto Company, priority 1987, dated 1992)", "key": {"[1]": {"system": "L6 myoblast", "test": "Standard L6 myoblast assays", "assay_type": "cell-based", "protocol": "(§1) 24 pregnant, non-lactating, cross-bred beef cows within their last 40-80 days of gestation were housed in a free-stall facility, fed a ration of alfalfa hay and pelleted concentrate, and administered 10 ml of an excipient (a sesame oil emulsion of the kind used in Examples 4-6) into each half-udder by intramammary infusion through the streak canal on days 1, 3, 5, 7 and 9 of this study. The infusion technique, random assignment of half-udders to treatment or control, and treatment vs. control comparisons were as in Examples 1-2. In the treatment infusions, the excipient contained bovine insulin-like growth factor-I (bIGF-I) prepared by expression in E. coli (Prla Strain 079) of recombinant DNA coding for bIGF-I fused to the \"lam\" B cell wall protein signal sequence, secretion into the E. coli periplasmic space, and recovery/purification by conventional techniques including gel filtration, cation exchange and reverse-phase HPLC. This bIGF-I had the same amino acid sequence and secondary structure as the AMgen human IGF-I used in Example 20. In standard L6 myoblast assays, its activity was essentially the same (90-123%) as that of the Example 20 hIGF-I. The amounts of bIGF-I in each infusion were: Group 1-2.5 micrograms: Group 2-25 micrograms; Group 3-250 micrograms. Animals were prepared and infused, and their quarter-udder weights and DNA were determined as in Example 3-6."}, "[2]": {"system": "Quarter-Udders in Pregnant Beef Cows", "test": "Intramammary infusion of bIGF-I, quarter-udder weights and DNA (Examples 14-16)", "assay_type": "in vivo, cross-bred beef cows", "protocol": "as §1\nWhen the procedures described for Groups 1-3 were repeated, results were essentially the same. Pooling results from the original study and its replication, it was determined that both treatment and control quarter-udders had grown as follows: […]"}, "[3]": {"conditions": "Group 1: total of 12.5 micrograms bIGF-I"}, "[4]": {"conditions": "Group 1: total of 12.5 micrograms bIGF-I, sesame oil emulsion"}, "[5]": {"conditions": "Group 1: total of 12.5 micrograms bIGF-I, B = excipient only"}}, "data": [{"substance": "bIGF-I: bovine insulin-like growth factor-I prepared by expression in E. coli of recombinant DNA", "values": [{"measurement": "Activity relative to the Example 20 hIGF-I", "setting": "[1]", "result": "90-123%"}, {"measurement": "DNA, Avg % Increase/Animal", "setting": "[2]; [3]", "result": 12.5, "unit": "%"}, {"measurement": "Dry Fat-Free Weight, Avg % Increase/Animal", "setting": "[2]; [3]", "result": 16.0, "unit": "%"}, {"measurement": "Dry Weight, Avg % Increase/Animal", "setting": "[2]; [3]", "result": 8.8, "unit": "%"}, {"measurement": "Wet Weight, Avg % Increase/Animal", "setting": "[2]; [3]", "result": 11.0, "unit": "%"}, {"measurement": "DNA, Treatment Mean", "setting": "[2]; [4]", "result": 1307, "unit": "mg"}, {"measurement": "Dry Fat-Free Weight, Treatment Mean", "setting": "[2]; [4]", "result": 54.9, "unit": "g"}, {"measurement": "Dry Weight, Treatment Mean", "setting": "[2]; [4]", "result": 111.7, "unit": "g"}, {"measurement": "Wet Weight, Treatment Mean", "setting": "[2]; [4]", "result": 408.4, "unit": "g"}, {"measurement": "DNA, % Increase, (A-B)/B", "setting": "[2]; [5]", "result": 7.2, "unit": "%"}, {"measurement": "DNA, Mean Increase (A-B)", "setting": "[2]; [5]", "result": 88, "unit": "mg"}, {"measurement": "Dry Fat-Free Weight, % Increase, (A-B)/B", "setting": "[2]; [5]", "result": 14.2, "unit": "%"}, {"measurement": "Dry Fat-Free Weight, Mean Increase (A-B)", "setting": "[2]; [5]", "result": 6.9, "unit": "g"}, {"measurement": "Dry Weight, % Increase, (A-B)/B", "setting": "[2]; [5]", "result": 8.7, "unit": "%"}, {"measurement": "Dry Weight, Mean Increase (A-B)", "setting": "[2]; [5]", "result": 9.0, "unit": "g"}, {"measurement": "Wet Weight, % Increase, (A-B)/B", "setting": "[2]; [5]", "result": 10.7, "unit": "%"}, {"measurement": "Wet Weight, Mean Increase (A-B)", "setting": "[2]; [5]", "result": 39.4, "unit": "g"}, {"measurement": "Plasma levels of bIGF-I during the study", "setting": "[2]; intramammary infusion, pregnant beef cows", "result": "did not increase significantly"}, {"measurement": "Growth of quarter-udders combined, Medium vs. Low dose", "setting": "[2]; pooled original study and replication, 25 vs 2.5 micrograms bIGF-I per infusion, Combined", "result": "+25%"}, {"measurement": "Growth of control quarter-udders, Medium vs. Low dose", "setting": "[2]; pooled original study and replication, 25 vs 2.5 micrograms bIGF-I per infusion, Controls", "result": "+27%"}, {"measurement": "Growth of treatment quarter-udders, Medium vs. Low dose", "setting": "[2]; pooled original study and replication, 25 vs 2.5 micrograms bIGF-I per infusion, Treatment", "result": "+23.1%"}, {"measurement": "Growth of quarter-udders combined, High vs. Low dose", "setting": "[2]; pooled original study and replication, 250 vs 2.5 micrograms bIGF-I per infusion, Combined", "result": "+67%"}, {"measurement": "Growth of control quarter-udders, High vs. Low dose", "setting": "[2]; pooled original study and replication, 250 vs 2.5 micrograms bIGF-I per infusion, Controls", "result": "+71.3%"}, {"measurement": "Growth of treatment quarter-udders, High vs. Low dose", "setting": "[2]; pooled original study and replication, 250 vs 2.5 micrograms bIGF-I per infusion, Treatment", "result": "+62%"}, {"measurement": "Growth of quarter-udders combined, High vs. Medium dose", "setting": "[2]; pooled original study and replication, 250 vs 25 micrograms bIGF-I per infusion, Combined", "result": "+33%"}, {"measurement": "Growth of control quarter-udders, High vs. Medium dose", "setting": "[2]; pooled original study and replication, 250 vs 25 micrograms bIGF-I per infusion, Controls", "result": "+34.4%"}, {"measurement": "Growth of treatment quarter-udders, High vs. Medium dose", "setting": "[2]; pooled original study and replication, 250 vs 25 micrograms bIGF-I per infusion, Treatment", "result": "+31.5%"}, {"measurement": "Growth of the non-infused quarters", "setting": "[2]; two higher doses (Groups 2-3)", "result": "substantial growth"}, {"measurement": "Growth of treatment quarters vs. control quarters", "setting": "[2]; two higher doses (Groups 2-3: 25 and 250 micrograms per infusion)", "result": "did not produce consistently greater growth of treatment quarters vs. control quarters"}]}]}
